Results as given in US20130131088A1 (UNIVERSITY HEALTH NETWORK, priority 2010, published 2013).

Experiments:
[1] = test system: AML cell lines and the KMS11 mM cell line; test: combination tests (FIG. 12); assay type: cell-based; conditions: in combination with fluvastatin
Excerpt: FIG. 12. Combination tests.

[2] = test system: KMS11; test: potentiation of statin cytotoxic effects by agents that mimic DP activities; assay type: cell-based; conditions: in combination with statin
Experimental: (§1) As cilostazol inhibits PDE3 which activates. PKA, studies were carried out using various PKA activators, including forskolin, a cell permeable analog of cAMP, db-cAMP, and a PDE3 inhibitor.

[3] = test system: AML-2; test: as above; assay type: cell-based; conditions: in combination with statin
Experimental: as §1

[4] = test system: AML-3 cell line; test: potentiation of statin cytotoxic/apoptotic effects by agents that mimic DP activities; assay type: cell-based; conditions: for potentiation of the cytotoxic effects of statins / statin cancer cell death: in combination with statin (forskolin with fluvastatin)
Experimental: The mechanism of action was investigated. First, to tease apart which of DP's many activities may be functionally critical, the synergistic potential of a panel of agents that mimics DP in one or more of its activities was tested (see Table 1).
As cilostazol inhibits PDE3 which activates. PKA, studies were carried out using various PKA activators, including forskolin, a cell permeable analog of cAMP, db-cAMP, and a PDE3 inhibitor. […] Inhibition of PDEs 6, 9 and 11 by zaprinast is expected to raise cGMP but not cAMP levels.

[5] = test system: KMS11-luc (KMS11 cells stably expressing luciferase)
Excerpt: Tumours were imaged in mice on designated days by whole-body imaging using the IVIS imaging system illustrated by a representative image (C). Briefly, mice were i.p. injected with luciferein followed by anesthetization with isoflurane. Signal intensity was quantified using Living Image versio 2.50.2 (Xenogen) by summing detected photon counts from dorsal and ventral images.

[6] = test system: CREB phosphorylation; test: CREB phosphorylation immunoblot (LI-COR quantification); assay type: cell-based; conditions: AML-3 cell line, 2 hours post-treatment
Experimental: as §1

[7] = test system: primary AML patient samples; test: apoptosis by Annexin V and propidium iodide dual staining; assay type: cell-based; conditions: 48 hrs
Excerpt: AV−/PI−=live cells, AV+/PI−=early apoptosis, AV+/PI+=late apoptosis, AV−/PI+=necrosis.

[8] = test system: AML-3 cell line; test: apoptosis by fixed PI, TUNEL and PARP cleavage; conditions: combination of dipyridamole and atorvastatin, 48 hrs; MVA dependant
[9] = test system: KMS11 cell line; test: apoptosis by fixed PI, TUNEL and PARP cleavage; conditions: combination of dipyridamole and atorvastatin, 48 hrs; MVA dependant
[10] = test system: HMGCR mRNA in LP1 mM cells; test: HMGCR mRNA levels by real-time PCR (SYBR Green); assay type: cell-based; conditions: combination of statins and dipyridamole, 16 hours post compound treatment
Experimental: (§2) RNA from primary AML and LP1 cells was harvested 24 and 16 hours post compound treatment respectively using TRIZOL reagent. HMGCR mRNA levels were assessed using real-time PCR (SYBR Green). […] For example, Fluva 2 indicates a fluvastatin concentration of 2 μM.

[11] = test system: KMS11 Multiple Myeloma (MM) cells; test: chemical screen for compounds potentiating the anti-proliferative/cytotoxic effect of atorvastatin (MTS); assay type: cell-based; conditions: sublethal doses in combination with atorvastatin (IC20), 72 hours
Experimental: A hundred compounds from the chemical library (see text) were assayed at varying concentrations (5-50 μM).
One hundred compounds were evaluated for their ability to potentiate the anti-proliferative activity of atorvastatin on statin-sensitive KMS11 mM cells. Briefly, cells were exposed to sublethal doses of atorvastatin (IC20) alone and in combination with sublethal doses of the compounds.

[12] = test system: HMGCR mRNA in primary AML patient samples; test: HMGCR mRNA levels by real-time PCR (SYBR Green); assay type: cell-based; conditions: combination of statins and dipyridamole, 24 hours post compound treatment
Experimental: as §2

[13] = test system: breast cancer cell lines (e.g. MCF-7); test: potentiation and synergy with statin in breast cancer cell lines; assay type: cell-based; conditions: with fluvastatin, 72 hours
Experimental: (§3) Atorvastatin was used in A549's and fluvastatin the breast cancer cell lines to asses potentiation and synergy.
(§4) Experiments in breast cancer cell lines (e.g. MCF-7) as well as the lung cancer cell lines (e.g. A549) were carried out similarly as described above.
(§5) Atorvastatin was used in A549's and fluvastatin the breast cancer cell lines to assess potentiation and synergy.

[14] = test system: A549; test: potentiation and synergy with statin in lung cancer cell line; assay type: cell-based; conditions: with atorvastatin, 72 hours
Experimental: as §3, §4, §5

[15] = p.o. three times a week for 37 days initiated 2 days post KMS11-luc injection, alone

SMILES: O=C1CCc2cc(OCCCCc3nnnn3C3CCCCC3)ccc2N1 [Cilostazol, cilostazol]
- level of potentiation compared with dipyridamole+fluvastatin [1]: similar
- potentiation of fluvastatin cell death [1]: potentiated
- potentiation of the cytotoxic effects of statins [2]: potentiated
- potentiation of the cytotoxic effects of statins [3]: potentiated
- potentiation of the cytotoxic effects of statins / statin cancer cell death [4]: potentiated

SMILES: CC(C)c1c(C(=O)Nc2ccccc2)c(-c2ccccc2)c(-c2ccc(F)cc2)n1CC[C@@H](O)C[C@@H](O)CC(=O)O [atorvastatin]
- effect on tumour growth, lower doses alone ([5]; lower doses, p.o. 3 times a week): no significant effect
- survival [5, 15]: prolonged
- tumor burden [5, 15]: significantly reduced

SMILES: CCCC(=O)Nc1ncnc2c1ncn2[C@@H]1O[C@@H]2COP(=O)(O)O[C@H]2[C@H]1OC(=O)CCC [db-cAMP, dibutyryl-cAMP]
- CREB phosphorylation [6]: increase
- apoptotic effects in combination with atorvastatin ([4]; 0.25 mM in combination with atorvastatin, 48 hours post treatment): recapitulated the DP-atorvastatin apoptotic effects

SMILES: OCCN(CCO)c1nc(N2CCCCC2)c2nc(N(CCO)CCO)nc(N3CCCCC3)c2n1 [dipyridamole]
- CREB phosphorylation [6]: increase
- induction of apoptosis ([7]; in combination with atorvastatin): induced apoptosis
- induction of apoptosis ([7]; in combination with fluvastatin): induced apoptosis
- induction of apoptosis [8]: induced apoptosis
- induction of apoptosis [9]: induced apoptosis
- upregulation of HMGCR mRNA [10]: prevents the upregulation
- potentiation of the anti-proliferative activity of atorvastatin [11]: remarkable potentiation
- upregulation of HMGCR mRNA [12]: prevents the upregulation
- potentiation of the anti-cancer effects of statins [13]: potentiated
- potentiation of the anti-cancer effects of statins [14]: potentiated

SMILES: C=C[C@@]1(C)CC(=O)[C@]2(O)[C@@]3(C)[C@@H](O)CCC(C)(C)[C@@H]3[C@H](O)[C@H](OC(C)=O)[C@@]2(C)O1 [forskolin]
- potentiation of the cytotoxic effects of statins / statin cancer cell death [4]: potentiated
